Like-named read-outs stand apart in the source and are kept apart here.
How the values were obtained:
[1] = tested on: MCF-7; set-up: method as in earlier work; conditions: DTP database of the NCI; cited from earlier work
[2] = tested on: PC-3; set-up: method as in earlier work; conditions: DTP database of the NCI; cited from earlier work
[3] = tested on: HT-29; set-up: method as in earlier work; conditions: DTP database of the NCI; cited from earlier work
[4] = tested on: CCRF-CEM; set-up: method as in earlier work; conditions: DTP database of the NCI; cited from earlier work
[5] = tested on: HTB-54; set-up: method as in earlier work; conditions: DTP database of the NCI, cited from earlier work
[6] = tested on: MCF-7; assay: cells; conditions: Homo sapiens, MCF7, 48 h; for activity at 10 µM: read-out: Cell growth (%) MCF-7; for GI50: read-out: GI50 MCF-7, 48 h, average ± SEM; for CC50: read-out: LC50 MCF-7; for IC (TGI): read-out: TGI MCF-7
[7] = tested on: CCRF-CEM; assay: cells; conditions: Homo sapiens, 48 h; for activity at 10 µM: read-out: Cell growth (%) CCRF-CEM; for GI50: read-out: GI50 CCRF-CEM; for CC50: read-out: LC50 CCRF-CEM; for IC (TGI): read-out: TGI CCRF-CEM
[8] = tested on: HT-29; assay: cells; conditions: Homo sapiens, HT-29, 48 h; for activity at 10 µM: read-out: Cell growth (%) HT-29; for GI50: read-out: GI50 HT-29; for CC50: read-out: LC50 HT-29; for IC (TGI): read-out: TGI HT-29
[9] = tested on: HTB-54; assay: cells; type: cell-based; conditions: Homo sapiens; for CC50: read-out: LC50 HTB54; for GI50: read-out: GI50 HTB54; for IC (TGI): read-out: TGI HTB54
Description: (§1) Cell lines were provided by the European Collection of Cell Cultures (ECACC) or by the American Type Culture Collection (ATCC). Seven cell lines were used: MCF-7 (breast adenocarnicoma), 184B5 (nonmalignant, mammary gland derived), CCRF-CEM (lymphoblastic leukemia), HT-29 (colon carcinoma), HTB-54 (lung carcinoma), BEAS-2B (nonmalignant, derived from the bronchial epithelium) and PC-3 (prostate carcinoma). MCF-7, CCRF-CEM, HT-29, HTB-54, BEAS-2B and PC-3 cell lines were grown in RPMI medium (Gibco) supplemented with 10% fetal bovine serum (FBS; Gibco), 100 units/mL penicillin and […] streptomycin (Gibco). 184B5 cells were grown in DMEM/F12 medium supplemented with 5% FBS, 1 × ITS (Lonza), 100 nM hydrocortisone (Aldich), 2 mM sodium pyruvate (Lonza), 20 ng/mL EGF (Sigma-Aldrich), 0.3 nM trans-retinoic acid (Sigma-Aldrich), 100 units/mL penicillin and […] streptomycin. Cells were maintained at 37 °C and 5% CO2.
(§2) The cytotoxic effect of each substance was tested by the MTT method. Each compound was initially dissolved in DMSO at a concentration of 0.01 M, and serial dilutions were prepared with nonsupplemented medium. The cytotoxic effect of each compound was tested at 50 and 10 µM as a first screening. […]
(§3) A total of 1 × 10^4 cells/well in 96-well plates were treated with increasing concentrations of the corresponding compounds for 48 h at 37 °C in a humidified atmosphere containing 5% CO2. Then, cells were incubated with 50 µL of MTT (2 mg/mL stock) for 4 h. The medium was then removed by aspiration, and the formazan crystals were dissolved in […] of DMSO. […] Data were obtained from at least 3 independent experiments performed in quadruplicate. The standard error of the means (SEM) for the cytotoxic parameters was calculated applying the standard deviation formula to the mean values of each parameter for the three independent experiments performed.
(§4) . Cisplatin was used as a standard drug. […]. […] The presence of electron-withdrawing groups (-NO2, -CF3, -Cl) in the phenyl ring favored the cytotoxic activity in the amides, but in the phosphoramidates, the best results were obtained for aliphatic chains methoxy (II.1b, II.2b) and ethoxy (II.1d, II.2d). […].

[10] = tested on: PC-3; assay: cells; type: cell-based; conditions: Homo sapiens; for LC50: read-out: LC50 PC-3; for GI50: read-out: GI50 PC-3; for IC (TGI): read-out: TGI PC-3
Description: as §1, §2, §3, §4

[11] = tested on: BEAS-2B; assay: MTT cytotoxicity in nonmalignant bronchial epithelium cells; type: cell-based; conditions: for GI50 / IC (TGI): Homo sapiens, BEAS-2B, 48 h; for GI50: read-out: GI50 BEAS-2B; for IC (TGI): read-out: TGI BEAS-2B; for Selectivity index (SI) = GI50 (BEAS-2B)/GI50 (HTB-54): lung
Description: as §1, §2, §3, §4
(§5) The lack of selectivity toward cancerous cells is one of the major issues during the discovery and development of new anticancer agents. Therefore, we evaluated the cytotoxic activity of our compounds against two cell lines derived from nonmalignant breast tissue (184B5) and no malignant bronchial epithelium (BEAS-2B) (Table 2). […].

[12] = as above; type: cell-based; conditions: human
Description: as §1, §2, §3, §4, §5

[13] = DPPH radical scavenging assay
Description: The DPPH (1,1-diphenyl-2-picrylhydrazyl radical) assay measures the hydrogen donation ability of the antioxidant to convert the stable DPPH free radical into 1,1-diphenyl-2-(2,4,6-trinitrophenyl)-hydrazine. After radical reaction with the compounds, a decrease in the absorbance was detected at 517 nm, which is accompanied by a change of color from violet to light-yellow. The target compounds were dissolved in methanol to make 1 mg/mL stock solutions, which were diluted to five concentrations as test samples. Ascorbic acid was used as a standard, and the experiment was carried out on 96-well plates. The DPPH solution was prepared at a 100 µM concentration. For each test, 100 µL of DPPH solution was added to 100 µL of methanolic solution containing the tested derivatives, and the absorbance was determined at different time points. All the measurements were carried out in triplicate. Results were expressed as the percentage of the radical scavenged, calculated using the following formula:(1) % DPPH radical scavenging=Acontrol − Asample/Acontrol × 100 where Acontrol refers to the absorbance of the negative control, and Asample refers to the absorbance of the tested compounds. Results are expressed as a percentage of DPPH radical scavenged ± SEM.
. Ascorbic acid and Trolox were used as radical scavenger gold standards. […]. No correlation was found for either structure–radical scavenging activity or antitumor–radical scavenging activity, except for compound I.2f, one of the selected cytotoxic agents. To further confirm this antioxidant activity, three compounds (I.1e, I.1g and I.2i) were also evaluated as DPPH radical scavengers at a lower concentration of 0.003 mg/mL (Figure 3B).

[14] = tested on: 184B5; assay: MTT cytotoxicity in nonmalignant mammary gland derived cells; type: cell-based; conditions: for GI50 / IC (TGI): Homo sapiens; for GI50: read-out: GI50 184B5; for IC (TGI): read-out: TGI 184B5; for Selectivity index (SI) = GI50 (184B5)/GI50 (MCF-7): breast
Description: as §1, §2, §3, §4, §5

[15] = as above; type: cell-based; conditions: human
Description: as §1, §2, §3, §4, §5

[16] = tested on: MCF-7; conditions: read-out: GI50 MCF-7; 48 h, average ± SEM
[17] = 184B5, nonmalignant cells, 48 h

Structure (SMILES)	activity at 10 µM [6]	GI50 [6]	CC50 [6]	IC (TGI) [6]	activity at 10 µM [7]	GI50 [7]	CC50 [7]	IC (TGI) [7]	activity at 10 µM [8]	GI50 [8]	CC50 [8]	IC (TGI) [8]	CC50 ([9]; HTB-54, 48 h)	GI50 ([9]; HTB-54, 48 h, average ± SEM)	IC (TGI) ([9]; HTB-54, 48 h, average ± SEM)	LC50 ([10]; PC-3, 48 h)	GI50 ([10]; PC-3, 48 h, average ± SEM)	IC (TGI) ([10]; PC-3, 48 h, average ± SEM)	GI50 ([11]; nonmalignant cells)	IC (TGI) ([11]; nonmalignant cells)	other results
N.N.[Cl][Pt][Cl] [Cp, cisplatin]	–	–	–	–	–	–	–	–	–	–	–	–	–	–	–	–	–	–	–	–	GI50 [1]: 3.2 µM; TGI MCF-7 [1]: >100 µM; GI50 [2]: 5 µM; TGI PC-3 [2]: 50.1 µM; GI50 [3]: 7.9 µM; TGI HT-29 [3]: >100 µM; GI50 [4]: 1 µM; TGI CCRF-CEM [4]: 79.6 µM; TGI HTB54 [5]: 32.7 µM; GI50 ([5]; read-out: GI50 HTB54): 9.6 µM
O=C(Nc1ccc([Se][Se]c2ccc(NC(=O)c3ccc([N+](=O)[O-])cc3)cc2)cc1)c1ccc([N+](=O)[O-])cc1 [I.1e]	45.2%	7.4 ± 1 µM	73.4 ± 0.1 µM	40.1 ± 0.1 µM	35.4%	6.5 ± 1.5 µM	67 ± 2 µM	33.8 ± 2 µM	49.2%	16.8 ± 2.5 µM	72.3 ± 1.8 µM	44.6 ± 3.1 µM	72.8 ± 1.4 µM	16.9 ± 3.1 µM	44.8 ± 2.3 µM	64.9 ± 1.1 µM	2.5 ± 0.2 µM	28.5 ± 1.9 µM	0.42 µM	4.8 µM	Selectivity index (SI) = GI50 (BEAS-2B)/GI50 (HTB-54) [11]: 0.02; LC50 (50% lethal concentration) at 48 h [12]: 15.8 µM; DPPH radical scavenging activity ([13]; 0.003 mg/mL): some moderate effect was observed; DPPH activity inhibition ([13]; 0.03 mg/mL, after 30 min): greater than 35%; GI50 [14, 17]: 7.76 µM; IC (TGI) [14, 17]: 33.8 µM; Selectivity index (SI) = GI50 (184B5)/GI50 (MCF-7) [14]: 1.14; LC50 (50% lethal concentration) at 48 h [15]: 68.2 µM
N#C[Se]c1ccc(NC(=O)c2ccc(Cl)cc2)cc1 [I.2b]	33.5%	< 1 µM	> 100 µM	51.8 ± 2.5 µM	50.1%	8.7 ± 1.1 µM	> 100 µM	> 100 µM	52.3%	16.5 ± 3.6 µM	> 100 µM	> 100 µM	> 100 µM	> 100 µM	> 100 µM	> 100 µM	> 100 µM	> 100 µM	> 100 µM	> 100 µM	GI50 [16]: 0.5 ± 0.9 µM; LC50 (50% lethal concentration) at 48 h [12]: > 100 µM; GI50 [14, 17]: 0.89 µM; IC (TGI) [14, 17]: > 100 µM; Selectivity index (SI) = GI50 (184B5)/GI50 (MCF-7) [14]: 1.53; LC50 (50% lethal concentration) at 48 h [15]: > 100 µM
N#C[Se]c1ccc(NC(=O)c2ccc([N+](=O)[O-])cc2)cc1 [I.2e]	33.4%	< 1 µM	> 100 µM	54.4 ± 2.7 µM	50.3%	31.6 ± 0.4 µM	> 100 µM	> 100 µM	35.9%	0.8 ± 0.1 µM	> 100 µM	58.2 ± 6.4 µM	> 100 µM	> 100 µM	> 100 µM	> 100 µM	> 100 µM	> 100 µM	> 100 µM	> 100 µM	GI50 [16]: 0.6 ± 0.1 µM; LC50 (50% lethal concentration) at 48 h [12]: > 100 µM; GI50 [14, 17]: 7.13 µM; IC (TGI) [14, 17]: > 100 µM; LC50 (50% lethal concentration) at 48 h [15]: > 100 µM
COP(=O)(Nc1ccc([Se]C#N)cc1)OC [II.2b]	-5.82%	< 1 µM	9.1 ± 0.7 µM	5 ± 1 µM	-67.4%	1.6 ± 0.2 µM	4.8 ± 0.3 µM	3.2 ± 0.2 µM	-69.4%	2 ± 0.3 µM	5 ± 0.1 µM	3.5 ± 0.1 µM	34.6 ± 0.4 µM	–	–	49 ± 0.7 µM	–	–	–	–	GI50 ([9]; HTB-54, 48 h): 6.2 ± 0.2 µM; IC (TGI) ([9]; HTB-54, 48 h): 8.6 ± 0.4 µM; GI50 ([10]; PC-3, 48 h): 6.4 ± 0.2 µM; IC (TGI) ([10]; PC-3, 48 h): 9.3 ± 0.1 µM; GI50 [16]: 0.6 ± 0.2 µM; GI50 [11]: 5.22 µM; IC (TGI) [11]: 6.8 µM; Selectivity index (SI) = GI50 (BEAS-2B)/GI50 (HTB-54) [11]: 0.84; LC50 (50% lethal concentration) at 48 h ([12]; nonmalignant cells, 48 h, read-out: LC50 BEAS-2B): 8.38 µM; GI50 ([14]; 184B5, 48 h): 5.44 µM; IC (TGI) ([14]; 184B5, 48 h): 6.94 µM; Selectivity index (SI) = GI50 (184B5)/GI50 (MCF-7) [14]: 7.56; CC50 at 48 h ([15]; nonmalignant cells, 48 h, read-out: LC50 184B5): 8.44 µM

Reference: paper PMC8069832, “New Amides and Phosphoramidates Containing Selenium: Studies on Their Cytotoxicity and Antioxidant Activities in Breast Cancer” (Antioxidants, 2021)
